In brackets after ≈: the same amount, converted by molar mass. Like-named read-outs stand apart in the source and are kept apart here.
Experiments:
Format in all cases: cell-based
[1] = tested on: Staphylococcus aureus fluoroquinolone-susceptible; test: MIC, 25 ocular isolates, broth microdilution (Example 8)
Procedure: • Mueller-Hinton Broth in tubes was inoculated with 25 ocular isolates of Staphylococcus aureus fluoroquinolone-susceptible, Staphylococcus aureus fluoroquinolone-resistant, Staphylococcus epidermidis (Coagulase-negative Staphylococcus) fluoroquinolone-susceptible, Staphylococcus epidermidis (Coagulase-negative Staphylococcus) fluoroquinolone-resistant, Pseudomonas aeruginosa and Serratia marcescens, plus two controls (Staphylococcus aureus and E. coli) and incubated at 37° C. overnight on a shaker set at 250 rpm.
(§1) On the day of testing, a 640 μg/ml (1280 μg/ml for Serratia marcescens and Pseudomonas aeruginosa) concentration was prepared from a 1% stock solution in 0.01% acetic acid, 0.2% BSA in polypropylene tubes.
(§2) Serial doubling dilutions in 0.01% acetic acid, 0.2% BSA in 96 well polypropylene plates, which are used as reservoirs for the inoculation of the test plates, were carried out to obtain serial dilutions of test agents at 10 times the required test concentrations: 640, 320, 160, 80, 40, 20, 10, 5, 2.5, 1.25, and 0.625 μg/ml (1280, 640, 320, 160, 80, 40, 20, 10, 5, 2.5, and 1.25 μg/ml for Serratia marcescens and Pseudomonas aeruginosa).
(§3) Ten μl of diluted 10×test agents was added to each well of one row of the 96 well polypropylene plates from column 2 to column 12 (column 1 is a control for bacteria alone, with no peptide). Test agent concentrations in columns 2-12 were as follows: 64, 32, 16, 8, 4, 2, 1, 0.5, 0.25, 0.125, and 0.0625 μg/ml (128, 64, 32, 16, 8, 4, 2, 1, 0.5, 0.25, and 0.125 μg/ml for Serratia marcescens and Pseudomonas aeruginosa). The same peptide was in each of the 8 rows. One plate contained dilutions of one test agent and 8 bacterial isolates.
On the day of testing, the overnight bacterial broth cultures of Staphylococcus aureus fluoroquinolone-susceptible, Staphylococcus aureus fluoroquinolone-resistant, Staphylococcus epidermidis (Coagulase-negative Staphylococcus) fluoroquinolone-susceptible, Staphylococcus epidermidis (Coagulase-negative Staphylococcus) fluoroquinolone-resistant, Serratia marcescens, and Pseudomonas aeruginosa, plus two controls (Staphylococcus aureus and E. coli) were diluted in 5 ml of trypticase soy broth to yield turbidity equal to a 0.5 McFarland standard. The final inoculum for MIC testing for Staphylococcus aureus fluoroquinolone-susceptible, Staphylococcus aureus fluoroquinolone-resistant, Staphylococcus epidermidis (Coagulase-negative Staphylococcus) fluoroquinolone-susceptible, Staphylococcus epidermidis (Coagulase-negative Staphylococcus) fluoroquinolone-resistant, Serratia marcescens, and Pseudomonas aeruginosa was achieved by placing 0.05 ml of the turbidity adjusted sample to 5 ml of Mueller-Hinton broth.
(§4) Ninety μl of the bacterial suspensions was dispensed in each well from column 1 to column 12. Each bacterial isolate was placed in one row of a 96 well polypropylene plate containing the test agents. The plates were placed on shaker at 15 minutes at room temperature, and then incubated at 37° C. overnight. MICs were determined visually as the lowest concentration of drug that inhibits visible bacterial growth.

Haemophilus influenzae = test: as above
Procedure: HTM (Haemophilus Test Medium) in tubes was inoculated with 25 ocular isolates of Haemophilus influenzae plus two controls (Staphylococcus aureus and E. coli) and incubated at 37° C. overnight. Additionally, Mueller-Hinton Broth in tubes was inoculated with two controls (Staphylococcus aureus and E. coli) and incubated at 37° C. overnight on a shaker set at 250 rpm.
as §1, §2, §3
On the day of testing, the overnight bacterial broth cultures of Haemophilus species was diluted in 5 ml of trypticase soy broth to yield turbidity equal to a 0.5 McFarland standard. The final inoculum for MIC testing for Haemophilus species was achieved by placing 0.1 ml of the turbidity adjusted sample to 5 ml of HTM medium.
as §4

P. aeruginosa ATCC 10145 = test: MIC, laboratory strains (Example 8)
[2] = Haemophilus influenzae, n=25 isolates, >64 replaced with 128

N=C(N)NCCCCC(=O)Nc1cc(C(F)(F)F)cc(NC(=O)c2cnc(C(=O)Nc3cc(C(F)(F)F)cc(NC(=O)CCCCNC(=N)N)c3SCCN)cn2)c1SCCN [Oligomer 5]
MIC50 ([1]; 25 isolates, Row 13): 0.25 µg/mL (≈ 0.273 µM) | MIC90 ([1]; 25 isolates, Row 22): 0.25 µg/mL (≈ 0.273 µM) | Range of MICs ([1]; 25 isolates, Summary of Results): 0.125 to 0.5 µg/mL | MIC ([1]; Staphylococcus aureus, 25 ocular isolates, read-out: Median MIC): ≤ 0.25 µg/mL | MIC ([1]; Staphylococcus aureus, isolate 1—E402, read-out: MIC): 0.5 µg/mL (≈ 0.545 µM) | MIC ([1]; Staphylococcus aureus, isolate 2—E1512, read-out: MIC): 0.25 µg/mL (≈ 0.273 µM) | MIC ([1]; Staphylococcus aureus, isolate 3—E253, read-out: MIC): 0.25 µg/mL (≈ 0.273 µM) | MIC ([1]; Staphylococcus aureus, isolate 4—K1518, read-out: MIC): 0.125 µg/mL (≈ 0.136 µM) | MIC ([1]; Staphylococcus aureus, isolate 5—K1525, read-out: MIC): 0.125 µg/mL (≈ 0.136 µM) | MIC ([1]; Staphylococcus aureus, isolate 6—K1663, read-out: MIC): 0.125 µg/mL (≈ 0.136 µM) | MIC ([1]; Staphylococcus aureus, isolate 7—K1648, read-out: MIC): 0.125 µg/mL (≈ 0.136 µM) | MIC ([1]; Staphylococcus aureus, isolate 8—K1646, read-out: MIC): 0.25 µg/mL (≈ 0.273 µM) | MIC ([1]; Staphylococcus aureus, isolate 9—K1642, read-out: MIC): 0.25 µg/mL (≈ 0.273 µM) | MIC ([1]; Staphylococcus aureus, isolate 10—K1638, read-out: MIC): 0.25 µg/mL (≈ 0.273 µM) | MIC ([1]; Staphylococcus aureus, isolate 11—K1628, read-out: MIC): 0.25 µg/mL (≈ 0.273 µM) | MIC ([1]; Staphylococcus aureus, isolate 12—K1618, read-out: MIC): 0.125 µg/mL (≈ 0.136 µM) | MIC ([1]; Staphylococcus aureus, isolate 13—K1617, read-out: MIC): 0.25 µg/mL (≈ 0.273 µM) | MIC ([1]; Staphylococcus aureus, isolate 14—K1611, read-out: MIC): 0.25 µg/mL (≈ 0.273 µM) | MIC ([1]; Staphylococcus aureus, isolate 15—K1607, read-out: MIC): 0.25 µg/mL (≈ 0.273 µM) | MIC ([1]; Staphylococcus aureus, isolate 16—K1600, read-out: MIC): 0.125 µg/mL (≈ 0.136 µM) | MIC ([1]; Staphylococcus aureus, isolate 17—K1591, read-out: MIC): 0.5 µg/mL (≈ 0.545 µM) | MIC ([1]; Staphylococcus aureus, isolate 18—K1585, read-out: MIC): 0.25 µg/mL (≈ 0.273 µM) | MIC ([1]; Staphylococcus aureus, isolate 19—K1583, read-out: MIC): 0.25 µg/mL (≈ 0.273 µM) | MIC ([1]; Staphylococcus aureus, isolate 20—K1574, read-out: MIC): 0.25 µg/mL (≈ 0.273 µM) | MIC ([1]; Staphylococcus aureus, isolate 21—K1566, read-out: MIC): 0.25 µg/mL (≈ 0.273 µM) | MIC ([1]; Staphylococcus aureus, isolate 22—K1551, read-out: MIC): 0.125 µg/mL (≈ 0.136 µM) | MIC ([1]; Staphylococcus aureus, isolate 23—K1545, read-out: MIC): 0.25 µg/mL (≈ 0.273 µM) | MIC ([1]; Staphylococcus aureus, isolate 24—K1540, read-out: MIC): 0.25 µg/mL (≈ 0.273 µM) | MIC ([1]; Staphylococcus aureus, isolate 25—K1530, read-out: MIC): 0.5 µg/mL (≈ 0.545 µM) | MIC ([1]; Staphylococcus aureus, n=25 per group, read-out: Median MIC): 0.25 µg/mL (≈ 0.273 µM) | MIC50 ([1]; Staphylococcus aureus, 25 isolates, Summary of Results, read-out: MIC50): 0.25 µg/mL (≈ 0.273 µM) | MIC90 ([1]; Staphylococcus aureus, 25 isolates, Summary of Results, read-out: MIC90): 0.5 µg/mL (≈ 0.545 µM) | MIC ([1]; Staphylococcus aureus, 25 isolates, Summary of Results, read-out: Median MIC): 0.25 µg/mL (≈ 0.273 µM) | MIC50 ([1]; n=25 per group): 0.25 µg/mL (≈ 0.273 µM) | MIC90 ([1]; n=25 per group): 0.5 µg/mL (≈ 0.545 µM) | Range of MICs ([1]; n=25 per group): 0.125 to 0.5 µg/mL | MIC (Haemophilus influenzae; Haemophilus influenzae, 25 ocular isolates, HTM medium, read-out: Median MIC): 16 µg/mL (≈ 17.4 µM) | MIC (Haemophilus influenzae; Haemophilus influenzae, isolate 1 B1359, read-out: MIC): > 64 µg/mL | MIC (Haemophilus influenzae; Haemophilus influenzae, isolate 2 B1346, read-out: MIC): > 64 µg/mL | MIC (Haemophilus influenzae; Haemophilus influenzae, isolate 3 B1345, read-out: MIC): > 64 µg/mL | MIC (Haemophilus influenzae; Haemophilus influenzae, isolate 4 B1343, read-out: MIC): > 64 µg/mL | MIC (Haemophilus influenzae; Haemophilus influenzae, isolate 5 B1338, read-out: MIC): 16 µg/mL (≈ 17.4 µM) | MIC (Haemophilus influenzae; Haemophilus influenzae, isolate 6 B1332, read-out: MIC): 64 µg/mL (≈ 69.8 µM) | MIC (Haemophilus influenzae; Haemophilus influenzae, isolate 7 B1331, read-out: MIC): > 64 µg/mL | MIC (Haemophilus influenzae; Haemophilus influenzae, isolate 8 B1330, read-out: MIC): > 64 µg/mL | MIC (Haemophilus influenzae; Haemophilus influenzae, isolate 9 B1379, read-out: MIC): 8 µg/mL (≈ 8.72 µM) | MIC (Haemophilus influenzae; Haemophilus influenzae, isolate 10 B1378, read-out: MIC): 4 µg/mL (≈ 4.36 µM) | MIC (Haemophilus influenzae; Haemophilus influenzae, isolate 11 B1313, read-out: MIC): 2 µg/mL (≈ 2.18 µM) | MIC (Haemophilus influenzae; Haemophilus influenzae, isolate 12 B1477, read-out: MIC): 4 µg/mL (≈ 4.36 µM) | MIC (Haemophilus influenzae; Haemophilus influenzae, isolate 13 B1286, read-out: MIC): 2 µg/mL (≈ 2.18 µM) | MIC (Haemophilus influenzae; Haemophilus influenzae, isolate 14 B1282, read-out: MIC): 8 µg/mL (≈ 8.72 µM) | MIC (Haemophilus influenzae; Haemophilus influenzae, isolate 15 B1291, read-out: MIC): 16 µg/mL (≈ 17.4 µM) | MIC (Haemophilus influenzae; Haemophilus influenzae, isolate 16 B1280, read-out: MIC): 16 µg/mL (≈ 17.4 µM) | MIC (Haemophilus influenzae; Haemophilus influenzae, isolate 17 B1279, read-out: MIC): 64 µg/mL (≈ 69.8 µM) | MIC (Haemophilus influenzae; Haemophilus influenzae, isolate 18 B1260, read-out: MIC): 16 µg/mL (≈ 17.4 µM) | MIC (Haemophilus influenzae; Haemophilus influenzae, isolate 19 B1238, read-out: MIC): 8 µg/mL (≈ 8.72 µM) | MIC (Haemophilus influenzae; Haemophilus influenzae, isolate 20 B1209, read-out: MIC): 8 µg/mL (≈ 8.72 µM) | MIC (Haemophilus influenzae; Haemophilus influenzae, isolate 21 B1249, read-out: MIC): 16 µg/mL (≈ 17.4 µM) | MIC (Haemophilus influenzae; Haemophilus influenzae, isolate 22 B1248, read-out: MIC): 4 µg/mL (≈ 4.36 µM) | MIC (Haemophilus influenzae; Haemophilus influenzae, isolate 23 B1244, read-out: MIC): 32 µg/mL (≈ 34.9 µM) | MIC (Haemophilus influenzae; Haemophilus influenzae, isolate 24 B1419, read-out: MIC): 32 µg/mL (≈ 34.9 µM) | MIC (Haemophilus influenzae; Haemophilus influenzae, isolate 25 B1222, read-out: MIC): > 64 µg/mL | MIC50 (Haemophilus influenzae; [2]): 16 µg/mL (≈ 17.4 µM) | MIC90 (Haemophilus influenzae; [2]): 128 µg/mL (≈ 140 µM) | MIC (Haemophilus influenzae; Haemophilus influenzae, n=25 isolates, >64 replaced with 128, read-out: Median MIC): 16 µg/mL (≈ 17.4 µM) | Range of MICs (Haemophilus influenzae; n=25 isolates, >64 replaced with 128): 2 to 128 µg/mL | MIC (P. aeruginosa ATCC 10145): > 100 µg/mL

From patent publication US20130065818A1, “Arylamide Compounds And Compositions And Uses Thereof” (POLYMEDIX, priority 2006, published 2013)
